Source: patent US4284639A, “Combating fungi with 1-phenoxy-2-(2,4-dichlorophenyl)-1-(1,2,4-triazol-1-yl)-ethan-2-ones and -ols” (Bayer Aktiengesellschaft, priority 1977, dated 1981)
Values after ≈ are worked out from the molar mass of the structure shown. Like-named read-outs stand apart in the source and are kept apart here.

Experiments:
Puccinia recondita = assay: Shoot treatment test/cereal rust (leaf-destructive mycosis)/protective; format: in vivo; settings: 0.025 % by weight active compound in the spray liquor; wheat; after 10 days; protective
Procedure: (§1) To produce a suitable preparation of active compound, 0.25 part by weight of active compound was taken up in 25 parts by weight of dimethylformamide and 0.06 part by weight of alkylaryl polyglycol ether and then 975 parts by weight of water were added. The concentrate was diluted with water to the desired final concentration of the spray liquor.
To test the protective activity, one-leaved young wheat plants of the Michigan Amber variety were inoculated with a uredospore suspension of Puccinia recondita in 0.1% strength aqueous agar. After the spore suspension had dried on, the wheat plants were sprayed with the preparation of active compound until dew-moist and were placed, for incubation, in a greenhouse for 24 hours at about 20° C. and 100% relative atmospheric humidity.
After 10 days' dwell time of the plants at a temperature of 20° C. and 80-90% atmospheric humidity, the occurrence of rust pustules on the plant was evaluated. The degree of infection was expressed as a percentage of the infection of the untreated control plants. 0% denoted no infection and 100% denoted the same degree of infection as in the case of the untreated control.

Trichophyton mentagr. = assay: Anti-mycotic in vitro activity, series dilution test; format: cell-based, Trichophyton mentagrophytes; settings: read-out: Minimum inhibitory concentration
Procedure: (§2) The in vitro tests were carried out in a series dilution test with germ inocula of an average of 5×10^4 germs/ml of substrate. The nutrient medium was (a) for dermatophytes and moulds: Sabouraud's milieu d'epreuve and (b) for yeasts; meat extract/glucose broth.
(§3) The incubation temperature was 28° C. and the duration of incubation was 24 to 96 hours.

Aspergillus species = assay: as above; format: cell-based; settings: read-out: Minimum inhibitory concentration
Procedure: as §2, §3

Candida albicans = assay: as above; format: cell-based; settings: read-out: Minimum inhibitory concentration
Procedure: as §2, §3

Penicillium commune = assay: as above; format: cell-based; settings: read-out: Minimum inhibitory concentration
Procedure: as §2, §3

Torulopsis glabrata = assay: as above; format: cell-based; settings: Nakaseomyces glabratus; γ/ml of nutrient medium; 28° C.; 24 to 96 hours; read-out: Minimum inhibitory concentration
Procedure: as §2, §3

[1] = system: Erysiphe graminis var. hordei; assay: Shoot treatment test/powdery mildew of cereal/protective (leaf-destructive mycosis); format: in vivo; settings: 0.025 % by weight active compound in the spray liquor; barley; after 6 days; protective
Procedure: as §1, with “ether;” for “ether and then”, “were then” for “were”
To test for protective activity, single-leaved young barley plants of the Amsel variety were sprayed with the preparation of active compound until dew-moist. After drying, the barley plants were dusted with spores of Erysiphe graminis var. hordei.
After 6 days' dwell time of the plants at a temperature of 21°-22° C. and 80-90% atmospheric humidity the occurrence of mildew pustules on the plants was evaluated. The degree of infection was expressed as a percentage of the infection of the untreated control plants. 0% denoted no infection and 100% denoted the same degree of infection as in the case of the untreated control.

Podosphaera leucotricha = assay: Podosphaera test (apple)/protective; format: in vivo; settings: apple seedlings, 10 days after inoculation, protective
Procedure: (§4) Solvent: 4.7 parts by weight of acetone
(§5) Emulsifier: 0.3 part by weight of alkylaryl polyglycol ether
(§6) Water: 95 parts by weight
The amount of active compound required for the desired concentration of the active compound in the spray liquid was mixed with the stated amount of solvent, and the concentrate was diluted with the stated amount of water which contained the stated amount of emulsifier.
Young apple seedlings in the 4-6 leaf stage were sprayed with the spray liquid until dripping wet. The plants remained in a greenhouse for 24 hours at 20° C. and at a relative atmospheric humidity of 70%. They were then inoculated by dusting the conidia of the apple powdery mildew causative organism (Podosphaera leucotricha) and placed in a greenhouse at a temperature of 21°-23° C. and at a relative atmospheric humidity of about 70%.
10 days after the inoculation, the infection of the seedlings was determined. The assessment data were converted to % infection. 0% meant no infection; 100% meant that the plants were completely infected.

Erysiphe cicohiacearum = assay: Erysiphe test (cucumber)/protective; format: in vivo; settings: cucumber plants, after 12 days, protective
Procedure: as §4, §5, §6
The amount of the active compound required for the desired concentration of active compound in the spray liquid was mixed with the stated amount of solvent and the concentrate was diluted with the stated amount of water containing the stated amount of emulsifier.
Young cucumber plants with about three foliage leaves were sprayed with the spray liquid until dripping wet. The cucumber plants remained in a greenhouse for 24 hours to dry. They were then, for the purpose of inoculation, dusted with conidia of the fungus Erysiphe cicohiacearum. The plants were subsequently placed in a greenhouse at 23°-24° C. and at a relative atmospheric humidity of about 75%.
After 12 days, the infection of the cucumber plants was determined. The assessment data were converted to percent infection. 0% meant no infection; 100% meant that the plants were totally infected.

Microsporon felineum = assay: Anti-mycotic in vitro activity, series dilution test; format: cell-based; settings: read-out: Minimum inhibitory concentration
Procedure: as §2, §3

[2] = γ/ml of nutrient medium, 28° C., 24 to 96 hours

For `O=C(c1ccc(Cl)cc1Cl)C(Oc1ccc(-c2ccccc2)cc1)n1cncn1` (stereo not shown) [Compound 5], the “Infection in % of the untreated control” value (Puccinia recondita) was 10.0%, the MIC (Trichophyton mentagr.; [2]) was less than 1 µg/mL and the MIC (Aspergillus species; [2]) was greater than 64 µg/mL. The MIC (Candida albicans; [2]) was 32 µg/mL (≈ 75.4 µM), the MIC (Penicillium commune; [2]) was greater than 64 µg/mL and the MIC (Torulopsis glabrata) was 32 µg/mL (≈ 75.4 µM).

In the case of `Cl.O=C(c1ccc(Cl)cc1Cl)C(Oc1ccc(Cl)cc1)n1cncn1` (stereo not shown) [Compound 2, 1-(4-Chlorophenoxy)-2-(2,4-dichlorophenyl)-1-(1,2,4-triazol-1-yl)-ethan-2-one hydrochloride], the “Infection in % of the untreated control” value [1] is reported as 0.0%, the “Infection in % of the untreated control” value (Puccinia recondita) is reported as 12.5% and the “Infection in % at an active compound concentration of 0.001%” value (“Infection in % … of 0.001%” below) (Podosphaera leucotricha) is reported as 25%. The “Infection in % at an active compound concentration of 0.00025%” value (shortened to “Infection in % … of 0.00025%”) (Erysiphe cicohiacearum) was 12%, the MIC (Trichophyton mentagr.; [2]) was 4 µg/mL and the MIC (Aspergillus species; [2]) was greater than 64 µg/mL. The MIC (Candida albicans; [2]) was 32 µg/mL, the MIC (Microsporon felineum; [2]) was 32 µg/mL and the MIC (Penicillium commune; [2]) was greater than 64 µg/mL.

In the case of `CC(C)(C)C(=O)C(Oc1ccc(Cl)cc1Cl)n1cncn1` (stereo not shown) [F, reference compound], the MIC (Trichophyton mentagr.; [2]) is reported as 4 µg/mL (≈ 12.2 µM), the MIC (Aspergillus species; [2]) is reported as 100 µg/mL (≈ 305 µM) and the MIC (Candida albicans; [2]) is reported as 40 µg/mL (≈ 122 µM). It also gave an MIC (Microsporon felineum; [2]) of 100 µg/mL (≈ 305 µM) and an MIC (Penicillium commune; [2]) greater than 100 µg/mL.

`COC(=O)c1ccc(OC(C(O)C(C)(C)C)n2cncn2)cc1` (stereo not shown) [H, reference compound] was tested, and the MIC (Trichophyton mentagr.; [2]) was 4 µg/mL (≈ 12.5 µM), the MIC (Aspergillus species; [2]) was greater than 64 µg/mL and the MIC (Candida albicans; [2]) was 64 µg/mL (≈ 200 µM). For the same molecule, the MIC (Microsporon felineum; [2]) was 64 µg/mL (≈ 200 µM) and the MIC (Penicillium commune; [2]) was greater than 64 µg/mL.

With `O=C(c1ccc(Cl)cc1Cl)C(Oc1ccc(-c2ccc(Cl)cc2)cc1)n1cncn1` (stereo not shown) [Compound 6] the “Infection in % of the untreated control” value [1] was 16.3%.

In the case of `Cl.OC(c1ccc(Cl)cc1Cl)C(Oc1ccc(Cl)cc1)n1cncn1` (stereo not shown) [Compound 3, 1-(4-chlorophenoxy)-2-(2,4-dichlorophenyl)-1-(1,2,4-triazol-1-yl)-ethan-2-ol hydrochloride], the “Infection in % of the untreated control” value [1] is reported as 7.5%, the “Infection in % … of 0.001%” value (Podosphaera leucotricha) is reported as 0% and the “Infection in % … of 0.00025%” value (Erysiphe cicohiacearum) is reported as 6%. For the same molecule, the MIC (Trichophyton mentagr.; [2]) was 4 µg/mL, the MIC (Aspergillus species; [2]) was 64 µg/mL and the MIC (Candida albicans; [2]) was 8 µg/mL. It also gave an MIC (Microsporon felineum; [2]) of 32 µg/mL and an MIC (Penicillium commune; [2]) greater than 64 µg/mL.

`CC(C)(C)C(=O)C(Oc1ccc(Cl)cc1)n1cncn1` (stereo not shown) [D, reference compound] was tested, and the “Infection in % … of 0.001%” value (Podosphaera leucotricha) was 42%, the MIC (Trichophyton mentagr.) was 4 µg/mL (≈ 13.6 µM) and the MIC (Aspergillus species) was 100 µg/mL (≈ 340 µM). The MIC (Candida albicans) was 40 µg/mL (≈ 136 µM), the MIC (Microsporon felineum) was 100 µg/mL (≈ 340 µM) and the MIC (Penicillium commune) was greater than 100 µg/mL.

With `CC(C)(C)C(O)C(Oc1ccc(-c2ccccc2)cc1)n1cncn1` (stereo not shown) [E, reference compound] the “Infection in % … of 0.00025%” value (Erysiphe cicohiacearum) was 62%.

For `O=C(c1ccc(Cl)cc1Cl)C(Oc1ccc(Cl)cc1Cl)n1cncn1` (stereo not shown) [Compound 4], the “Infection in % of the untreated control” value [1] was 0.0%.

For `OC(c1ccccc1)C(Oc1ccc(Cl)cc1)n1cncn1` (stereo not shown) [K, reference compound], the MIC (Trichophyton mentagr.; [2]) was 64 µg/mL (≈ 203 µM), the MIC (Candida albicans; [2]) was 64 µg/mL (≈ 203 µM) and the MIC (Penicillium commune; [2]) was greater than 64 µg/mL.

In the case of `OC(c1ccc(Cl)cc1Cl)C(Oc1ccc(Cl)cc1Cl)n1cncn1` (stereo not shown) [Compound 14], the “Infection in % of the untreated control” value [1] is reported as 0.0%, the “Infection in % … of 0.001%” value (Podosphaera leucotricha) is reported as 0% and the “Infection in % … of 0.00025%” value (Erysiphe cicohiacearum) is reported as 16%. For the same molecule, the MIC (Trichophyton mentagr.; [2]) was 4 µg/mL (≈ 9.54 µM), the MIC (Aspergillus species; [2]) was 64 µg/mL (≈ 153 µM) and the MIC (Candida albicans; [2]) was 8 µg/mL (≈ 19.1 µM). It also gave an MIC (Microsporon felineum; [2]) of 32 µg/mL (≈ 76.4 µM), an MIC (Penicillium commune; [2]) greater than 64 µg/mL and an MIC (Torulopsis glabrata) of 32 µg/mL (≈ 76.4 µM).

For `CC(C)(C)C(=O)C(Oc1ccc(-c2ccccc2)cc1)n1cncn1` (stereo not shown) [B, reference compound], the “Infection in % of the untreated control” value (Puccinia recondita) was 33.8%.

`CC(C)(C)C(=O)C(Oc1ccc(-c2ccc(Cl)cc2)cc1)n1cncn1` (stereo not shown) [A, reference compound] was tested, and the “Infection in % of the untreated control” value [1] was 55.0%.

`O=C(c1ccc(Cl)cc1)C(Oc1ccc(Cl)cc1Cl)n1cncn1` (stereo not shown) [G, reference compound] was tested, and the MIC (Penicillium commune; [2]) was greater than 100 µg/mL.

`OC(c1ccc(Cl)cc1Cl)C(Oc1ccc(-c2ccccc2)cc1)n1cncn1` (stereo not shown) [Compound 15] was tested, and the “Infection in % of the untreated control” value [1] was 37.5%, the “Infection in % … of 0.00025%” value (Erysiphe cicohiacearum) was 12% and the MIC (Trichophyton mentagr.; [2]) was less than 1 µg/mL. For the same molecule, the MIC (Aspergillus species; [2]) was greater than 64 µg/mL, the MIC (Candida albicans; [2]) was 32 µg/mL (≈ 75.1 µM) and the MIC (Microsporon felineum; [2]) was less than 1 µg/mL. For the same molecule, the MIC (Penicillium commune; [2]) was greater than 64 µg/mL and the MIC (Torulopsis glabrata) was 1 µg/mL (≈ 2.35 µM).

For `CC(C)(C)C(O)C(Oc1ccc(Cl)cc1Cl)n1cncn1` (stereo not shown) [C, reference compound], the “Infection in % of the untreated control” value (Puccinia recondita) was 33.8%.

In the case of `OC(c1ccc(Cl)cc1Cl)C(Oc1ccc(-c2ccc(Cl)cc2)cc1)n1cncn1` (stereo not shown) [Compound 16], the “Infection in % of the untreated control” value [1] is reported as 37.5%, the MIC (Trichophyton mentagr.; [2]) is reported as less than 1 µg/mL and the MIC (Aspergillus species; [2]) is reported as greater than 64 µg/mL. It also gave an MIC (Candida albicans; [2]) of 8 µg/mL (≈ 17.4 µM), an MIC (Microsporon felineum; [2]) of 4 µg/mL (≈ 8.68 µM) and an MIC (Penicillium commune; [2]) greater than 64 µg/mL. It also gave an MIC (Torulopsis glabrata) of 1 µg/mL (≈ 2.17 µM).
